{
  "source": "patent US10705093B2",
  "about": "“Determination of small-molecule thiols and disulfides: protein bound cys and total cysteine as biomarkers of oxidative stress” (Bloodworks, priority 2014, dated 2020)",
  "key": {"[1]": {"tested_on": "Protein-ss-Cys in plasma from a normal donor", "experiment": "Protein-ss-Cys in plasma treated with two physiologically relevant oxidants", "design": "species or system human", "conditions": "37° C. for 30 min, with increasing oxidant concentration", "procedure": "A. Cys containing species in normal donors' plasma (n=6); B. Plasma from a nomal donor treated with hydrogen peroxide (H2O2) and hypochlorous acid (HOCl), two oxidants commonly released from activated cells and neutrophils of patients with oxidative stress. Plasma was reaction with the indicated concentration at 37° C. for 30 min and followed by methanol extraction and analysis by LC-MS/MS-MRM as described in Example 1."}, "Cys disulfides in plasma": {"tested_on": "Cys disulfides in plasma", "experiment": "Cys and Cys disulfide changes in plasma from a patient with SCD before and after NAC infusion (LC-MS/MS-MRM)"}, "[2]": {"tested_on": "NAC, Cys species and GSH in plasma/whole blood/RBC", "experiment": "Time course of NAC, Cys containing species and GSH in plasma/whole blood from a patient with SCD before and after NAC treatment"}, "[3]": {"conditions": "after NAC infusion for 1 hr at 150 mg/kg vs baseline"}},
  "data": [
    {"compound": "OO", "note": "[H2O2, hydrogen peroxide]", "values": [
      {"measurement": "Change of Protein-ss-Cys in plasma exposed to oxidant", "setting": "[1]", "result": "increased"}
    ]},
    {"compound": "OCl", "note": "[HOCl, hypochlorous acid]", "values": [
      {"measurement": "Change of Protein-ss-Cys in plasma exposed to oxidant", "setting": "[1]", "result": "increased"}
    ]},
    {"compound": "CC(=O)N[C@@H](CS)C(=O)O", "note": "[NAC, N-Acetyl Cysteine]", "values": [
      {"measurement": "NAC-ss-Cys mixed disulfide in plasma", "setting": "Cys disulfides in plasma; after NAC infusion for 1 hr at 150 mg/kg", "result": "Detection of NAC-ss-Cys"},
      {"measurement": "Change of Cystine in plasma", "setting": "Cys disulfides in plasma; [3]", "result": "large decrease"},
      {"measurement": "Change of Protein-ss-Cys in plasma", "setting": "Cys disulfides in plasma; [3]", "result": "large decrease"},
      {"measurement": "Change of total Cys in plasma", "setting": "Cys disulfides in plasma; [3]", "result": "no significant changes"},
      {"measurement": "Free Cys in plasma after NAC infusion", "setting": "Cys disulfides in plasma; after NAC infusion for 1 hr at 150 mg/kg, baseline 7 μM", "result": "over 170 μM"},
      {"measurement": "NAC level in plasma", "setting": "[2]; 24 hr time point", "result": "almost not detectable"},
      {"measurement": "Increase of GSH level", "setting": "[2]; 24 hr time point compared to before treatment", "result": 13, "unit": "%"},
      {"measurement": "Increase of free Cys in the red blood cell (RBC) fraction", "setting": "[2]; RBC fraction, after NAC infusion vs before", "result": "over 10 fold"},
      {"measurement": "Free Cys in the red blood cell (RBC) fraction after NAC", "setting": "[2]; RBC fraction, after NAC infusion, before 2.3 μM", "result": 31, "unit": "µM"},
      {"measurement": "Change of free Cys in plasma", "setting": "[2]; after NAC infusion vs Pre", "result": "greatly increased"},
      {"measurement": "Change of p-ss-Cys", "setting": "[2]; after NAC infusion vs Pre", "result": "decreased sharply"},
      {"measurement": "Change of total small molecular weight thiol (st-Cys)", "setting": "[2]; after NAC infusion vs Pre", "result": "greatly increased"},
      {"measurement": "NAC half time", "setting": "[2]; inferred from the 24 hr level", "result": "short"},
      {"measurement": "Fraction of NAC oxidized", "setting": "[2]; plasma, at 1 hr (right after NAC infusion)", "result": "over 50%"},
      {"measurement": "Free Cys in whole blood after NAC", "setting": "[2]; whole blood, after NAC infusion, before 13 μM", "result": 170, "unit": "µM"}
    ]}
  ]
}
